In patent US20230265151A1, “GIP/GLP1 CO-AGONIST COMPOUNDS” (priority 2020, published 2023):
Like-named read-outs stand apart in the source and are kept apart here.

What was measured:
[1] = biological target: T1, human GLP-1 receptor (hGLP-1R) (Homo sapiens, UniProt P43220); test: [125I]-GLP-1 binding, SPA with membranes of HEK293 cells expressing hGLP-1R
T1 construct: expressed in transfected cells; crude membranes

[2] = biological target: T2, human GIP receptor (hGIPR) (Homo sapiens, UniProt P48546); test: [125I]-GIP binding, SPA with membranes of CHO cells expressing hGIPR
T2 construct: expressed in transfected cells; crude membranes
T2 sequence (P48546 22-466): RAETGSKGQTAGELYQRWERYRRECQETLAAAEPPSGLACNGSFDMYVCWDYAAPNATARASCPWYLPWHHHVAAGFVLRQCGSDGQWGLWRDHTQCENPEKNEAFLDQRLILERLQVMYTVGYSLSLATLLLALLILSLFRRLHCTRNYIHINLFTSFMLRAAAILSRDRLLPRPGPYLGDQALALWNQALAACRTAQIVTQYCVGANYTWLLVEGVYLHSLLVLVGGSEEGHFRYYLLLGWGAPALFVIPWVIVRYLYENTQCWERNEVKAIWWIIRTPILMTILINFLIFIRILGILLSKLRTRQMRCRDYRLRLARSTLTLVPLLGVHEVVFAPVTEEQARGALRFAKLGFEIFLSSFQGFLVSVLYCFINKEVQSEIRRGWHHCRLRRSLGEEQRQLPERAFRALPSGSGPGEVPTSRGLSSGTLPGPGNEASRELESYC

[3] = biological target: T3, hGIPR (Homo sapiens, UniProt P48546); test: Functional cAMP formation (HTRF) in HEK-293 clonal cells expressing hGIPR, 0.1% bovine casein, without or with 1.0% human serum albumin; format: cell-based
T3 construct: expressed in transfected cells
T3 sequence (P48546 22-466): T2 sequence (P48546 22-466)
In short: (§1)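 Cells were stimulated with peptide for 30 min at 37° C, then lysed in buffer carrying cAMP-d2 and anti-cAMP Eu3+-cryptate for a competitive HTRF read after at least 60 min at room temperature. The 665/620 nm ratio was converted to nM cAMP against a standard curve.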

[4] = biological target: T4, hGCGR (Homo sapiens, UniProt P47871); test: Functional cAMP formation (HTRF) in HEK-293 clonal cells expressing hGCGR, 0.1% bovine casein, without or with 1.0% human serum albumin; format: cell-based
T4 construct: expressed in transfected cells
In short: as §1

[5] = biological target: hGLP-1R (Homo sapiens, UniProt P43220); test: Functional cAMP formation (HTRF) in HEK-293 clonal cells expressing hGLP-1R, 0.1% bovine casein, without or with 1.0% human serum albumin; format: cell-based; parameters: expressed in transfected cells; conditions: for EC50: geometric mean; for Emax: percent of maximal response to GLP-1(7-36)NH2, arithmetic mean
In short: as §1

[6] = human GLP-1R, geometric mean (SEM, n), read-out: Binding Affinity Ki, nM (SEM, n) hGLP-1R
[7] = human GIPR, geometric mean (SEM, n), read-out: Binding Affinity Ki, nM (SEM, n) hGIPR
[8] = HEK293, cAMP, 37° C., 0.1% bovine casein and 1.0% human serum albumin, percent of maximal response to GIP(1-42)NH2, read-out: hGIPR Emax, % ± SEM
[9] = cAMP, 37° C., 0.1% bovine casein (no human serum albumin), geometric mean, read-out: hGIPR EC50, nM (SEM, n)
[10] = cAMP, 37° C., 0.1% bovine casein (no human serum albumin), geometric mean, read-out: hGCGR EC50, nM (SEM, n)
[11] = cAMP, 37° C., 0.1% bovine casein and 1.0% human serum albumin, geometric mean (SEM, n), read-out: hGCGR EC50, nM (SEM, n)
[12] = cAMP, 37° C., 0.1% bovine casein (no human serum albumin), read-out: hGLP-1R EC50, nM (SEM, n)

Sequence of hGLP-1R (P43220 24-463): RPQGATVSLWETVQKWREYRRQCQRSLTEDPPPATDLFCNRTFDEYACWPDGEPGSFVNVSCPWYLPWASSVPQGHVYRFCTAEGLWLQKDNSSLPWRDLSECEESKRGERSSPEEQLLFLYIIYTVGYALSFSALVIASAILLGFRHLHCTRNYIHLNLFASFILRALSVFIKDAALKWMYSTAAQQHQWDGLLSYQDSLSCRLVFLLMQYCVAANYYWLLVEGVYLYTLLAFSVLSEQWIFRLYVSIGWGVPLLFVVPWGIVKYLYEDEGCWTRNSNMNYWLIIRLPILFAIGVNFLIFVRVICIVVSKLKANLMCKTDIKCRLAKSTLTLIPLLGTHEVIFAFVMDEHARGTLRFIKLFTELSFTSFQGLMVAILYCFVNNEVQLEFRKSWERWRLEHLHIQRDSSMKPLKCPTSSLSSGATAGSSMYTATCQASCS
T4 sequence (P47871 26-477): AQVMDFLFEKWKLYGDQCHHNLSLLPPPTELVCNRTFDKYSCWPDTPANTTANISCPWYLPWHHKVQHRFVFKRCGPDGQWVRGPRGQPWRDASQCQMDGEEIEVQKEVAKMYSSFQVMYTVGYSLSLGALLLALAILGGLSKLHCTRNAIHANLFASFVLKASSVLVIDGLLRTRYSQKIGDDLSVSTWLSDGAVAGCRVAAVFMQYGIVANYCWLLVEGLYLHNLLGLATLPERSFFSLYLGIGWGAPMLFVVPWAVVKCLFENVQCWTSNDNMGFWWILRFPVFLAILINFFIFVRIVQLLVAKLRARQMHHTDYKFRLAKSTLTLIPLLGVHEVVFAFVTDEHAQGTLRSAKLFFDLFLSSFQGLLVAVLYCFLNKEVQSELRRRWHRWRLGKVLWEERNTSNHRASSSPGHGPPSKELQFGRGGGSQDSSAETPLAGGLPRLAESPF

| SMILES | Ki [1] [nM] | Ki [2] [nM] | Ki [1, 6] [nM] | Ki [2, 7] [nM] | Emax [3, 8] [%] | EC50 [3, 9] [nM] | EC50 [4, 10] [nM] | EC50 [4, 11] [nM] | EC50 [5, 12] [nM] | also measured |
| --- | --- | --- | --- | --- | --- | --- | --- | --- | --- | --- |
| CC[C@H](C)[C@H](NC(=O)[C@H](CC(C)C)NC(=O)[C@](C)(Cc1ccc(O)cc1)NC(=O)[C@@H](CCC(=O)O)NC(=O)[C@@H](NC(=O)[C@H](Cc1ccccc1)NC(=O)[C@H](CCC(=O)O)NC(=O)C(C)(C)NC(=O)[C@H](CCC(N)=O)NC(=O)[C@H](C)NC(=O)[C@H](CCCCNC(=O)COCCOCCNC(=O)COCCOCCNC(=O)CC[C@H](NC(=O)CCCc1ccc(C(C)(C)C)cc1)C(=O)O)NC(=O)[C@H](CCCN)NC(=O)[C@H](CC(=O)O)NC(=O)[C@H](CC(C)C)NC(=O)[C@](C)(CC(C)C)NC(=O)[C@@H](NC(=O)[C@H](CO)NC(=O)[C@H](Cc1ccncc1)NC(=O)[C@H](CC(=O)O)NC(=O)[C@H](CO)NC(=O)[C@@H](NC(=O)[C@](C)(Cc1ccccc1F)NC(=O)[C@@H](NC(=O)CNC(=O)[C@H](CCC(=O)O)NC(=O)C(C)(C)NC(=O)[C@@H](N)Cc1ccc(O)cc1)[C@@H](C)O)[C@@H](C)O)[C@@H](C)CC)[C@@H](C)CC)C(=O)N[C@@H](CCC(=O)O)C(=O)NCC(=O)NCC(=O)N[C@@H](CCCCNC(=O)COCCOCCNC(=O)COCCOCCNC(=O)CC[C@H](NC(=O)CCCc1ccc(C(C)(C)C)cc1)C(=O)O)C(=O)N[C@@H](CO)C(=O)N[C@@H](CO)C(=O)NCC(=O)N[C@@H](C)C(=O)N1CCC[C@H]1C(=O)N1CCC[C@H]1C(=O)N1CCC[C@H]1C(=O)N[C@@H](CO)C(N)=O [Example 4] | 0.413 | 0.0528 | – | – | – | – | – | – | – | Emax ([3]; HEK293, read-out: hGIPR Emax, % ± SEM, 0.1% bovine casein and 1.0% human serum albumin, 37° C., percent of maximal response to GIP(1-42)NH2): 88.3 ± 2.17%; Emax ([3]; HEK293, read-out: hGIPR Emax, % ± SEM, percent of maximal response to GIP(1-42)NH2, 37° C., 0.1% bovine casein, arithmetic mean): 92.9 ± 0.381%; EC50 ([3]; hGIPR EC50, nM (SEM, n), 0.1% bovine casein and 1.0% human serum albumin, 37° C., geometric mean): 0.0296 nM; EC50 ([4]; hGCGR EC50, nM (SEM, n), 0.1% bovine casein and 1.0% human serum albumin, 37° C., geometric mean): > 9950 nM; EC50 ([4]; hGCGR EC50, nM (SEM, n), cAMP, incubated at 37° C., 0.1% bovine casein (no human serum albumin), geometric mean): > 9950 nM; EC50 ([5]; hGLP-1R EC50, nM (SEM, n), 0.1% bovine casein and 1.0% human serum albumin, 37° C.): 0.584 nM; EC50 ([5]; hGLP-1R EC50, nM (SEM, n), cAMP, incubated at 37° C., 0.1% bovine casein (no human serum albumin)): 0.137 nM |
| CC[C@H](C)[C@H](NC(=O)[C@H](CC(C)C)NC(=O)[C@](C)(Cc1ccc(O)cc1)NC(=O)[C@H](CCCCNC(=O)COCCOCCNC(=O)CC[C@H](NC(=O)CCCCCCCCCOc1ccc(C(=O)O)cc1)C(=O)O)NC(=O)[C@@H](NC(=O)[C@H](Cc1ccccc1)NC(=O)[C@H](CCCN)NC(=O)C(C)(C)NC(=O)[C@H](CCC(N)=O)NC(=O)[C@H](C)NC(=O)[C@H](CCC(N)=O)NC(=O)[C@H](CCCN)NC(=O)[C@H](CC(=O)O)NC(=O)[C@H](CC(C)C)NC(=O)[C@](C)(CC(C)C)NC(=O)[C@@H](NC(=O)C(C)(C)NC(=O)[C@H](Cc1ccncc1)NC(=O)[C@H](CC(=O)O)NC(=O)[C@H](CO)NC(=O)[C@@H](NC(=O)[C@](C)(Cc1ccccc1F)NC(=O)[C@@H](NC(=O)CNC(=O)[C@H](CCC(=O)O)NC(=O)C(C)(C)NC(=O)[C@@H](N)Cc1ccc(O)cc1)[C@@H](C)O)[C@@H](C)O)[C@@H](C)CC)[C@@H](C)CC)C(=O)N[C@@H](CCCCNC(=O)COCCOCCNC(=O)CC[C@H](NC(=O)CCCCCCCCCOc1ccc(C(=O)O)cc1)C(=O)O)C(=O)NCC(=O)NCC(=O)N1CCC[C@H]1C(=O)N[C@@H](CO)C(=O)N[C@@H](CO)C(=O)NCC(=O)N[C@@H](C)C(=O)N1CCC[C@H]1C(=O)N1CCC[C@H]1C(=O)N1CCC[C@H]1C(=O)N[C@@H](CO)C(N)=O [Example 463] | 0.143 | 0.0183 | – | – | – | – | – | – | – | Emax ([3]; HEK293, read-out: hGIPR Emax, % ± SEM, cAMP, 37° C., 0.1% bovine casein, percent of maximal response to GIP(1-42)NH2, arithmetic mean): 91.4%; EC50 ([3]; hGIPR EC50, nM (SEM, n), cAMP, 37° C., 0.1% bovine casein (no human serum albumin), geometric mean): 0.0124 nM; EC50 ([3]; hGIPR EC50, nM (SEM, n), cAMP, 37° C., 0.1% bovine casein and 1.0% human serum albumin, geometric mean (SEM, n)): 0.35 nM; EC50 ([4]; hGCGR EC50, nM (SEM, n), cAMP, 37° C., 0.1% bovine casein (no human serum albumin), geometric mean): > 9950 nM; EC50 ([4]; hGCGR EC50, nM (SEM, n), cAMP, 37° C., 0.1% bovine casein and 1.0% human serum albumin, geometric mean (SEM, n)): > 9950 nM; Emax ([5]; HEK293, read-out: hGLP-1R Emax, % ± SEM, cAMP, 37° C., 0.1% bovine casein): 111%; EC50 ([5]; hGLP-1R EC50, nM (SEM, n), cAMP, 37° C., 0.1% bovine casein (no human serum albumin)): 0.267 nM |
| CCCCCCCCCCCC(=O)N[C@@H](CCC(=O)NCCOCCOCC(=O)NCCOCCOCC(=O)NCCOCCOCC(=O)NCCCC[C@H](NC(=O)[C@H](CCCN)NC(=O)[C@H](CC(=O)O)NC(=O)[C@H](CC(C)C)NC(=O)[C@](C)(CC(C)C)NC(=O)[C@@H](NC(=O)C(C)(C)NC(=O)[C@H](Cc1ccncc1)NC(=O)[C@H](CC(=O)O)NC(=O)[C@H](CO)NC(=O)[C@@H](NC(=O)[C@](C)(Cc1ccccc1F)NC(=O)[C@@H](NC(=O)CNC(=O)[C@H](CCC(=O)O)NC(=O)C(C)(C)NC(=O)[C@@H](N)Cc1ccc(O)cc1)[C@@H](C)O)[C@@H](C)O)[C@@H](C)CC)C(=O)N[C@@H](C)C(=O)N[C@@H](CCC(N)=O)C(=O)NC(C)(C)C(=O)N[C@@H](CCCCNC(=O)COCCOCCNC(=O)COCCOCCNC(=O)COCCOCCNC(=O)CC[C@H](NC(=O)CCCCCCCCCCC)C(=O)O)C(=O)N[C@@H](Cc1ccccc1)C(=O)N[C@H](C(=O)N[C@H](CCC(=O)O)C(=O)N[C@@](C)(Cc1ccc(O)cc1)C(=O)N[C@@H](CC(C)C)C(=O)N[C@H](C(=O)N[C@@H](CCC(=O)O)C(=O)NCC(=O)NCC(=O)N1CCC[C@H]1C(=O)N[C@@H](CO)C(=O)N[C@@H](CO)C(=O)NCC(=O)N[C@@H](C)C(=O)N1CCC[C@H]1C(=O)N1CCC[C@H]1C(=O)N1CCC[C@H]1C(=O)N[C@@H](CO)C(N)=O)[C@@H](C)CC)[C@@H](C)CC)C(=O)O [Example 422] | – | – | 0.194 | 0.0218 | 97.5 | 0.00655 | > 9950 | > 9950 | 0.0729 | – |
| CC[C@H](C)[C@H](NC(=O)[C@H](CC(C)C)NC(=O)[C@](C)(Cc1ccc(O)cc1)NC(=O)[C@H](CCCCNC(=O)CCOCCOCCOCCOCCOCCOCCNC(=O)CC[C@H](NC(=O)CCCCCCCCCCCCC(=O)O)C(=O)O)NC(=O)[C@@H](NC(=O)[C@H](Cc1ccccc1)NC(=O)[C@H](CCCN)NC(=O)C(C)(C)NC(=O)[C@H](CCC(N)=O)NC(=O)[C@H](C)NC(=O)[C@H](CCC(N)=O)NC(=O)[C@H](CCCN)NC(=O)[C@H](CC(=O)O)NC(=O)[C@H](CC(C)C)NC(=O)[C@](C)(CC(C)C)NC(=O)[C@@H](NC(=O)C(C)(C)NC(=O)[C@H](Cc1ccncc1)NC(=O)[C@H](CC(=O)O)NC(=O)[C@H](CO)NC(=O)[C@@H](NC(=O)[C@](C)(Cc1ccccc1F)NC(=O)[C@@H](NC(=O)CNC(=O)[C@H](CCC(=O)O)NC(=O)C(C)(C)NC(=O)[C@@H](N)Cc1ccc(O)cc1)[C@@H](C)O)[C@@H](C)O)[C@@H](C)CC)[C@@H](C)CC)C(=O)N[C@@H](CCCCNC(=O)CCOCCOCCOCCOCCOCCOCCNC(=O)CC[C@H](NC(=O)CCCCCCCCCCCCC(=O)O)C(=O)O)C(=O)NCC(=O)NCC(=O)N1CCC[C@H]1C(=O)N[C@@H](CO)C(=O)N[C@@H](CO)C(=O)NCC(=O)N[C@@H](C)C(=O)N1CCC[C@H]1C(=O)N1CCC[C@H]1C(=O)N1CCC[C@H]1C(=O)N[C@@H](CO)C(N)=O [Example 466] | – | – | 0.2 | 0.0199 | 93.4 | 0.00971 | > 10100 | > 10100 | 0.156 | Emax ([3]; HEK293, cAMP, 37° C., 0.1% bovine casein, percent of maximal response to GIP(1-42)NH2, arithmetic mean, read-out: hGIPR Emax, % ± SEM): 98.8%; Emax ([5]; HEK293, cAMP, 37° C., 0.1% bovine casein, read-out: hGLP-1R Emax, % ± SEM): 105% |
